From patent publication US20120165331A1, “Di/tri-aza-spiro-C9-C11alkanes” (priority 2010, published 2012)

Assays:
human orexin 1 receptor = target: T1, human orexin 1 receptor (Homo sapiens, UniProt O43613); experiment: Calcium accumulation in cells (FLIPR), antagonism of orexin A, human orexin 1 receptor; assay type: cell-based; settings: for Ki: calcium accumulation, antagonism of orexin A, Cheng-Prusoff corrected, read-out: FLIPR hOx1R Ki; for inhibition at 10 µM: measured at a concentration of 10 μM of compound, read-out: FLIPR hOx1R % inhibition
T1 construct: expressed in transfected cells
T1 sequence (O43613 1-425): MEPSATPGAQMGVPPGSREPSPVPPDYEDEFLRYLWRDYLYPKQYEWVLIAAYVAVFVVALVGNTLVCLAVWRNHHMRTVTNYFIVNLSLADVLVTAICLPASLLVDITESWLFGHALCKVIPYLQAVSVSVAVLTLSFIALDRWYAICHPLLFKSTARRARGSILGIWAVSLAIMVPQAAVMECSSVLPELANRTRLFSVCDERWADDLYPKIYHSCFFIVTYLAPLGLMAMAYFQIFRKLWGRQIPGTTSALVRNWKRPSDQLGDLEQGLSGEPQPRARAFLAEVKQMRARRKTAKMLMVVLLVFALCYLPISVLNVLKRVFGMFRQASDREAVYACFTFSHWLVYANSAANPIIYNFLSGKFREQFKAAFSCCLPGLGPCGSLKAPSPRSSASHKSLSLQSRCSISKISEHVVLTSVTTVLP

human orexin 2 receptor = target: T2, human orexin 2 receptor (Homo sapiens, UniProt O43614); experiment: Calcium accumulation in cells (FLIPR), antagonism of orexin A, human orexin 2 receptor; assay type: cell-based; settings: for Ki: calcium accumulation, antagonism of orexin A, Cheng-Prusoff corrected, read-out: FLIPR hOx2R Ki; for inhibition at 10 µM: measured at a concentration of 10 μM of compound, read-out: FLIPR hOx2R % inhibition
T2 construct: expressed in transfected cells
T2 sequence (O43614 1-444): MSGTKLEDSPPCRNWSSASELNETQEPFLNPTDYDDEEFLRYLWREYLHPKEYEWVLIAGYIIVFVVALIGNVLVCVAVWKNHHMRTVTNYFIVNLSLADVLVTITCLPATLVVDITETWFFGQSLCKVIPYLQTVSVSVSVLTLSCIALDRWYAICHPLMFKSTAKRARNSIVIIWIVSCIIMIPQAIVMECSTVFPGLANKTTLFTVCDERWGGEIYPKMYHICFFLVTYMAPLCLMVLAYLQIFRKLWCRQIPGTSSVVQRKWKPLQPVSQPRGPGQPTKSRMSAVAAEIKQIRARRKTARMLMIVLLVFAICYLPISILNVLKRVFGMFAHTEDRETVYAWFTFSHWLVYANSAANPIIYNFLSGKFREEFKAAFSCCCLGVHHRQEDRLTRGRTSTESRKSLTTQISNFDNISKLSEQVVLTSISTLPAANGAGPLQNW

| SMILES | Ki (human orexin 1 receptor) | Ki (human orexin 2 receptor) | inhibition at 10 µM (human orexin 1 receptor) | inhibition at 10 µM (human orexin 2 receptor) |
| --- | --- | --- | --- | --- |
| COc1cccc(-c2nn(C)nc2CN2CCCC3(CCN(c4nccc(OC)n4)C3)C2=O)c1 (centres unmarked) [Example 7.7, 7-((5-(3-Methoxyphenyl)-2-methyl-2H-1,2,3-triazol-4-yl)methyl)-2-(4-methoxypyrimidin-2-yl)-2,7-diazaspiro[4.5]decan-6-one] | 537 nM | 366 nM |  |  |
| O=C1N(Cc2ccccc2-c2ccccc2)CCC12CCN(c1cnc3ccccc3n1)CC2 [Example 3.6, 2-(biphenyl-2-ylmethyl)-8-(quinoxalin-2-yl)-2,8-diazaspiro[4.5]decan-1-one] | 1630 nM | 784 nM |  |  |
| O=C1N(Cc2c[nH]c3ccccc23)CCC12CCN(c1ccc(-n3ccnc3)nn1)C2 (centres unmarked) [Example 5.20, 7-(6-(1H-imidazol-1-yl)pyridazin-3-yl)-2-((1H-indol-3-yl)methyl)-2,7-diazaspiro[4.4]nonan-1-one] |  |  | 34% | 33% |
| O=C1COCC2(CCN(c3cnc4ccccc4n3)CC2)N1Cc1c[nH]c2ccccc12 [Example 8.8, 1-((1H-Indol-3-yl)methyl)-9-(quinoxalin-2-yl)-4-oxa-1,9-diazaspiro[5.5]undecan-2-one] |  | 635 nM | 33% |  |
| N#Cc1cccc(N2CCC3(CC2)COCC(=O)N3Cc2cccc3[nH]ccc23)n1 [Example 8.17, 6-(1-((1H-Indol-4-yl)methyl)-2-oxo-4-oxa-1,9-diazaspiro[5.5]undecan-9-yl)picolinonitrile] |  | 584 nM | 40% |  |
| O=C1OCC2(CCN(c3cnc4ccccc4n3)CC2)N1Cc1c[nH]c2ccccc12 [Example 8.21] |  | 480 nM | 33% |  |
| COc1cc(C)nc(N2CCC3(CCN(Cc4nn(C)nc4Br)C3=O)C2)n1 (centres unmarked) [Example 5.46, 2-((5-bromo-2-methyl-2H-1,2,3-triazol-4-yl)methyl)-7-(4-methoxy-6-methylpyrimidin-2-yl)-2,7-diazaspiro[4.4]nonan-1-one] |  |  | < 10% | 21% |
| Cc1cc(C)nc(N2CCC3(CC2)NCCN(Cc2nn(C)cc2-c2ccc(C#N)cc2)C3=O)n1 [Example 1.45, 4-(3-((9-(4,6-Dimethylpyrimidin-2-yl)-5-oxo-1,4,9-triazaspiro[5.5]undecan-4-yl)methyl)-1-methyl-1H-pyrazol-4-yl)benzonitrile] |  |  | 21% | 45% |
| Cc1cc(C)nc(N2CCC3(CC2)NCCN(Cc2nn(C)cc2-c2cccc(-n4cccn4)c2)C3=O)n1 [Example 1.57, 4-((4-(3-(1H-Pyrazol-1-yl)phenyl)-1-methyl-1H-pyrazol-3-yl)methyl)-9-(4,6-dimethyl-pyrimidin-2-yl)-1,4,9-triazaspiro[5.5] undecan-5-one] | 2670 nM | 175 nM |  |  |
| Cc1cc(C)nc(N2CCC3(CC2)NCCN(Cc2nn(C)cc2-c2cccc(C#N)c2)C3=O)n1 [Example 1.44, 3-(3-((9-(4,6-Dimethylpyrimidin-2-yl)-5-oxo-1,4,9-triazaspiro[5.5]undecan-4-yl)methyl)-1-methyl-1H-pyrazol-4-yl)benzonitrile] |  | 1490 nM | 12% |  |
| Cc1cccc(N2CCC3(CCN(Cc4c[nH]c5ccccc45)C3=O)C2)n1 (centres unmarked) [Example 5.27, 2-((1H-indol-3-yl)methyl)-7-(6-methylpyridin-2-yl)-2,7-diazaspiro[4.4]nonan-1-one] | 2390 nM | 298 nM |  |  |
| COc1cc(OC)cc(-c2cn(C)nc2CN2CCNC3(CCN(c4nc(C)cc(C)n4)CC3)C2=O)c1 [Example 1.37, 4-((4-(3,5-Dimethoxyphenyl)-1-methyl-1H-pyrazol-3-yl)methyl)-9-(4,6-dimethylpyrimidin-2-yl)-1,4,9-triazaspiro[5.5] undecan-5-one] |  | 2330 nM | 40% |  |
| O=C1N(Cc2c[nH]c3ccccc23)CCC12CCN(c1nc3ccccc3o1)C2 (centres unmarked) [Example 5.8, 2-((1H-Indol-3-yl)methyl)-7-(benzo[d]oxazol-2-yl)-2,7-diazaspiro[4.4]nonan-1-one] | 739 nM | 304 nM |  |  |
| COc1cc(C)nc(N2CCC3(CCCN(Cc4c[nH]c5ncccc45)C3=O)C2)n1 (centres unmarked) [Example 7.13, 7-((1H-pyrrolo[2,3-b]pyridin-3-yl)methyl)-2-(4-methoxy-6-methylpyrimidin-2-yl)-2,7-diazaspiro[4.5]decan-6-one] | 299 nM | 115 nM |  |  |
| COc1cc(C)nc(N2CCC3(CCN(Cc4ccccc4-c4nc(C)no4)C3=O)C2)n1 (centres unmarked) [Example 5.42, 7-(4-methoxy-6-methylpyrimidin-2-yl)-2-(2-(3-methyl-1,2,4-oxadiazol-5-yl)benzyl)-2,7-diazaspiro[4.4]nonan-1-one] | 1950 nM | 180 nM |  |  |
| COc1ccnc(N2CCC3(CCN(Cc4c[nH]c5ncccc45)C3=O)C2)n1 (centres unmarked) [Example 5.11, 2-((1H-Pyrrolo[2,3-b]pyridin-3-yl)methyl)-7-(4-methoxypyrimidin-2-yl)-2,7-diazaspiro[4.4]nonan-1-one] |  |  | < 10% | 26% |
| COc1ccnc(N2CCC3(CCCN(Cc4n[nH]c5ccccc45)C3=O)C2)n1 (centres unmarked) [Example 7.3, 7-((1H-Indazol-3-yl)methyl)-2-(4-methoxypyrimidin-2-yl)-2,7-diazaspiro[4.5]decan-6-one] | 1430 nM | 234 nM |  |  |
| COc1cc(N2CCC3(CCN(Cc4c[nH]c5ccccc45)C3=O)C2)n2nccc2n1 (centres unmarked) [Example 5.38, 2-((1H-indol-3-yl)methyl)-7-(5-methoxypyrazolo[1,5-a]pyrimidin-7-yl)-2,7-diazaspiro[4.4]nonan-1-one] | 2410 nM | 1020 nM |  |  |
| COc1ccnc(N2CCC3(CCN(Cc4c[nH]c5ccccc45)C3=O)C2)n1 (centres unmarked) [Example 5.1, 2-((1H-indol-3-yl)methyl)-7-(4-methoxypyrimidin-2-yl)-2,7-diazaspiro[4.4]nonan-1-one] | 2140 nM | 132 nM |  |  |
| COc1nc(C)cc(N2CCC3(CCN(Cc4c[nH]c5ccccc45)C3=O)C2)n1 (centres unmarked) [Example 5.36, 2-((1H-indol-3-yl)methyl)-7-(2-methoxy-6-methylpyrimidin-4-yl)-2,7-diazaspiro[4.4]nonan-1-one] |  | 927 nM | 18% |  |
| Cc1cc(C)nc(N2CCC3(CCN(Cc4cccc5[nH]ccc45)C3=O)C2)n1 (centres unmarked) [Example 5.9, 2-((1H-Indol-4-yl)methyl)-7-(4,6-dimethylpyrimidin-2-yl)-2,7-diazaspiro[4.4]nonan-1-one] |  | 1290 nM | < 10% |  |
| COc1nc(C)cc(N2CCC3(CC2)NCCN(Cc2c[nH]c4ccccc24)C3=O)n1 [Example 1.66, 4-((1H-indol-3-yl)methyl)-9-(2-methoxy-6-methyl-pyrimidin-4-yl)-1,4,9-triazaspiro[5.5] undecan-5-one] | 3920 nM | 632 nM |  |  |
| Cc1cc(C)nc(N2CCC3(CC2)NCCN(Cc2nn(C)cc2-c2ccc4c(c2)OCCO4)C3=O)n1 [Example 1.61, 4-((4-(2,3-Dihydro-benzo[b][1,4]dioxin-6-yl)-1-methyl-1H-pyrazol-3-yl)methyl)-9-(4,6-dimethylpyrimidin-2-yl)-1,4,9-triazaspiro[5.5] undecan-5-one] | 836 nM | 1.8 nM |  |  |
| COc1ccnc(N2CC[C@@]3(CCN(Cc4c[nH]c5ccccc45)C3=O)C2)n1 [Example 5.2, (R)-2-((1H-indol-3-yl)methyl)-7-(4-methoxypyrimidin-2-yl)-2,7-diazaspiro[4.4]nonan-1-one] |  | 1260 nM | 49% |  |
| Cc1cc(C)nc(N2CCC3(CC2)OCCN(Cc2ccccc2-c2ncco2)C3=O)n1 [Example 2.9, 9-(4,6-Dimethylpyrimidin-2-yl)-4-(2-(oxazol-2-yl)benzyl)-1-oxa-4,9-diazaspiro[5.5]undecan-5-one] |  | 659 nM | 42% |  |
| Cn1c(N2CCC3(CCN(Cc4ccccc4-c4ccccc4)C3=O)CC2)nc2ccccc21 [Example 3.8, 2-(Biphenyl-2-ylmethyl)-8-(1-methyl-1H-benzo[d]imidazol-2-yl)-2,8-diazaspiro[4.5]decan-1-one] | 506 nM | 644 nM |  |  |
| Cc1cc(C)nc(N2CCC3(CC2)OCCN(Cc2c(-c4ccccc4)nnn2C)C3=O)n1 [Example 2.15, 9-(4,6-Dimethylpyrimidin-2-yl)-4-((1-methyl-4-phenyl-1H-1,2,3-triazol-5-yl)methyl)-1-oxa-4,9-diazaspiro[5.5]undecan-5-one] |  | 2160 nM | 10% |  |
| O=C1N(Cc2c[nH]c3ccccc23)CCCC12CCN(c1nc3ccccc3o1)C2 (centres unmarked) [Example 7.8, 7-((1H-Indol-3-yl)methyl)-2-(benzo[d]oxazol-2-yl)-2,7-diazaspiro[4.5]decan-6-one] | 98 nM | 168 nM |  |  |
